Holding throughout (type): in vivo
In experiment [1] the test system is human non-small cell lung adenocarcinoma cell line H2087-polypeptide FILDGLYSV
In words: Polypeptide + Freund's adjuvant vaccine in subcutaneous tumor-modeled NOD/SCID mice. The settings on record: adjuvant+polypeptide 100 μg s.c., 4 immunizations; vs adjuvant alone and adjuvant+wild-type polypeptide groups. As for the experimental part: (§1) After isolated with Ficoll solution from 600 to 900 ml anticoagulant peripheral blood from a healthy volunteer, the collected PBMCs in a concentration of 2×10^7 cells/0.5 ml were intraperitoneally injected into each of 300 NOD SCID mice without immune leakage, so as to reconstruct a human immune system in the NOD SCID mice, with the mice after 4 weeks selected for subsequent inoculation of the human non-small cell lung adenocarcinoma cell line H2087-polypeptide […] obtained in 6.2.
(§2) The human non-small cell lung adenocarcinoma cell line H2087-polypeptide […] (SEQ ID NO:1) obtained in 6.2 was incubated in DMEM medium containing 10% fetal calf serum, 100 U/mL penicillin and 100 U/mL streptomycin in an incubator under 37° C. and 5% CO2, and then the cells were centrifuged at 3000 rpm for collection. The collected cells were washed with sterile physiological saline three times, and then diluted appropriately. To 40 μl tumor cell suspension, 10 μl 0.4% […] was added for staining, subsequently the tumor cell suspension in a concentration of 1×10^8 cells/ml was prepared after counting under microscope. 100 μl of the tumor cell suspension was inoculated into each of the NOD/SCID mice by subcutaneous injection at 4 weeks post immune reconstruction in 6.3, with daily observation of the presence/absence of infection at inoculation sites, the increase/decrease of tumor size (in the case of presence of a tumor), and measurement of the major axis (a) and the minor axis (b) of a tumor by a vernier caliper every 2 or 3 days (where the tumor size=a×b×b/2). After 7 days from inoculation, a tumor in a size of rice grain was touchable at the inoculation site. After that, the subcutaneous tumor-modeled NOD/SCID mice (modeled with H2087-polypeptide […] (SEQ ID NO:1)) were treated with a polypeptide+complete Freund's adjuvant vaccine, a polypeptide+DCs vaccine, a lentivirus-infected DCs vaccine and a DC-CTL vaccine respectively, with the tumor size and mouse survival rate observed and recorded every 2 days.
The subcutaneous tumor-modeled NOD/SCID mice obtained in 6.4 of the example 6 were divided into 8 groups randomly as below, with 6 mice per group.
After 2 weeks, differently-immunized mice in 7 groups received respective same-dosage booster immunizations at 2 week interval for 4 times in total, with incomplete Freund's adjuvant for the latter three immunizations.
The general characteristics (including mental state, activity, response, diet, body weight and tumor growth) of the mice were observed daily, where the major axis (a) and the minor axis (b) of a tumor were measured by a vernier caliper every 2 days for calculation of tumor size according to a formula of a×b×b/2, where the mouse survival rate in a time period is calculated by the following formula: Survival rate=the number of survival mice/(the number of survival mice+the number of dead mice)×100%.

Experiment [2] shares this test system. Briefly: Lentivirus-infected DCs vaccine in subcutaneous tumor-modeled NOD/SCID mice. Conditions: DCs infected with lentivirus expressing the polypeptide, intracutaneous, 2 injections; vs wild-type lentivirus DCs. As for the experimental part:
as §1, §2
Peripheral blood mononuclear cells (PBMCs) in 100 to 150 mL anticoagulant peripheral blood obtained from a healthy volunteer were isolated with Ficoll solution. After the collected PBMCs were incubated at 37° C. for 2 hours and the non-adherent PBLs were removed, the adherent monocytes were cultured in the presence of recombinant human granulocyte macrophage colony stimulating factor (rhGM-CSF) and recombinant human interleukin-4 (rhIL-4). […] After 24 hours' incubation, the collected cells with lentivirus-containing medium removed were again incubated in a fresh medium containing 50 ng/ml rhIL-4, 100 ng/ml rh GM-CSF, 100 U/ml IFN-γ and 100 U/ml CD40L in an incubator under 37° C. and 5% CO2 for 48 to 72 hours, so as to induce mature DCs, and then the DCs infected with lentivirus were observed under the fluorescence microscope. The collected mature DCs were washed with physiological saline three times and diluted with the physiological saline to a concentration of (4.0±0.5)×10^7 cells/ml for use. The subcutaneous tumor-modeled NOD/SCID mice obtained in 6.4 of the example 6 were randomly divided into seven groups as below, with 6 mice per group.
The vital signs of the mice were observed after administration, and the major axis (a) and the minor axis (b) of a tumor were measured by a vernier caliper every 2 days for calculation of tumor size according to a formula of a×b×b/2, with the weight change and survival rate observed and recorded.

The test system is the same in experiment [3]. In words: DC polypeptide vaccine in subcutaneous tumor-modeled NOD/SCID mice. The settings on record: DCs loaded with the polypeptide, intracutaneous, 2 injections; vs DCs loaded with wild-type polypeptide. The protocol: as §1, §2
Peripheral blood mononuclear cells (PBMCs) in 100 to 150 mL anticoagulant peripheral blood obtained from a healthy volunteer were isolated with Ficoll solution. The collected PBMCs suspended in the RPMI 1640 medium in a concentration of 2×10^6-3×10^6 cells/ml were incubated at 37° C. for 2 hours, obtaining adherent monocytes which can be induced into DCs, and non-adherent peripheral blood lymphocytes (PBLs) for use.
The subcutaneous tumor-modeled NOD/SCID mice obtained in 6.4 of the example were randomly divided into seven groups as below, with 6 mice per group.
For each of the above seven groups, DCs (respectively loaded with the wild-type polypeptide, the mutant polypeptide or each of five mutant polypeptide's variants) were washed with physiological saline three times and then diluted with the physiological saline to a concentration of (4.0±0.5)×10^7 cells/ml, and 0.1 ml of the resulting diluent (in a dosage of (4.0±0.5)×10^6 cells) was administrated to each inner thigh close to the inguen of each mouse by intracutaneous injection, at one week interval for 2 injections in total. The vital signs of the mice were observed after administration, and the major axis (a) and the minor axis (b) of a tumor were measured by a vernier caliper every 2 days for calculation of tumor size according to a formula of a×b×b/2, with the weight change and survival rate observed and recorded.

Regarding “FILDGLYSL [mutant polypeptide's variant, Leucine at position 9]”, the Mouse survival period result in experiment [1] was “prolonging mouse survival period effectively”; in experiment [2] it was “prolonging mouse survival period effectively”; in experiment [3], “prolonging the mouse survival period”. Further, the Tumor growth entry is reported as “inhibiting tumor growth” in experiment [1], “inhibiting tumor growth” in experiment [2] and “mitigating tumor growth significantly” in experiment [3].

“FILDGLYSV [mutant polypeptide from COL21A1, Serine at position 45 mutated into Leucine]”: the Mouse survival period result in experiment [1] is recorded as “prolonging mouse survival period effectively”; in experiment [2], “prolonging mouse survival period effectively”; in experiment [3] it was “prolonging the mouse survival period”. The results for the Tumor growth entry in experiment [1], in experiment [2] and in experiment [3] were “inhibiting tumor growth”, “inhibiting tumor growth” and “mitigating tumor growth significantly”, respectively.

Take “FLLDGLYSL [mutant polypeptide's variant, Leucine at positions 2 and 9]”: the Mouse survival period result is reported as “prolonging mouse survival period effectively” in experiment [1], “prolonging mouse survival period effectively” in experiment [2] and “prolonging the mouse survival period” in experiment [3]. Besides, the Tumor growth entry in experiment [1] is “inhibiting tumor growth”; in experiment [2], “inhibiting tumor growth”; in experiment [3], “mitigating tumor growth significantly”.

“FLLDGLYSV [mutant polypeptide's variant, Leucine at position 2]”: the values for the Mouse survival period entry in experiment [1], in experiment [2] and in experiment [3] were “prolonging mouse survival period effectively”, “prolonging mouse survival period effectively” and “prolonging the mouse survival period”, respectively. The Tumor growth entry in experiment [1] is “inhibiting tumor growth”; in experiment [2], “inhibiting tumor growth”; in experiment [3], “mitigating tumor growth significantly”.

In the case of FMLDGLYSL, the Mouse survival period entry is listed as “prolonging mouse survival period effectively” in experiment [1], “prolonging mouse survival period effectively” in experiment [2] and “prolonging the mouse survival period” in experiment [3]. For the same sequence, the figures for the Tumor growth entry in experiment [1], in experiment [2] and in experiment [3] were “inhibiting tumor growth”, “inhibiting tumor growth” and “mitigating tumor growth significantly”, respectively.

For the sequence FMLDGLYSV, the Mouse survival period result in experiment [1] was “prolonging mouse survival period effectively”; in experiment [2], “prolonging mouse survival period effectively”; in experiment [3], “prolonging the mouse survival period”. Further, the values for the Tumor growth result in experiment [1], in experiment [2] and in experiment [3] were “inhibiting tumor growth”, “inhibiting tumor growth” and “mitigating tumor growth significantly”, respectively.

The values are drawn from patent US11213563B2, “Polypeptide and use thereof” (Genoimmune Therapeutics Co., Ltd., priority 2016, dated 2022).
